Calls of active or inactive are those of the source. The calls are words filed in the database; no cut-off is given here.
Target: not listed separately
Assay: Inhibition of alpha glucosidase (unknown origin) using p-nitrophenyl alpha-D-glucopyranoside as substrate pretreated for 15 mins followed by substrate addition after 30 mins by spectrophotometric method
Parameters: species or system Homo sapiens

Question: Which IC50 does the source give for `O=C(N/N=C/c1coc2ccccc2c1=O)c1cccs1` here?
Answer: > 100 µM

Question: Which IC50 does the source give for `Nc1ccc(C(=O)N/N=C/c2coc3ccccc3c2=O)cc1` here?
Answer: 96.9 µM

Question: For `O=C(N/N=C/c1coc2ccccc2c1=O)c1ccccc1`, which IC50 is on record?
Answer: > 100 µM

Question: For `CCOC(=O)N/N=C/c1coc2cc(O)ccc2c1=O`, which IC50 is on record?
Answer: 95.4 µM

Question: For `Cc1ccc(S(=O)(=O)N/N=C/c2coc3cc(O)ccc3c2=O)cc1`, which IC50 is on record?
Answer: > 100 µM

Question: For `NS(=O)(=O)c1ccc(N/N=C/c2coc3cc(O)ccc3c2=O)cc1`, which IC50 is on record?
Answer: 25.2 µM

Question: For `O=C(N/N=C/c1coc2ccccc2c1=O)c1ccc(O)cc1`, which IC50 is on record?
Answer: 39.8 µM

Question: With `O=C(N/N=C/c1coc2cc(O)ccc2c1=O)c1cccs1` as the compound, how does the IC50 read?
Answer: 60.8 µM

Question: For `O=C(N/N=C/c1coc2cc(O)ccc2c1=O)c1ccccc1`, which IC50 is on record?
Answer: 45.7 µM

Question: With `O=c1c(/C=N/Nc2ccccc2)coc2ccccc12` as the compound, how does the IC50 read?
Answer: 26.7 µM

Question: Which IC50 does the source give for `O=c1c(/C=N/Nc2cccc(Cl)c2)coc2cc(O)ccc12` here?
Answer: 96.7 µM

Question: For `NS(=O)(=O)c1ccc(N/N=C/c2coc3ccccc3c2=O)cc1`, which IC50 is on record?
Answer: 20.1 µM

Question: For `Nc1ccc(C(=O)N/N=C/c2coc3cc(O)ccc3c2=O)cc1`, which IC50 is on record?
Answer: 30.8 µM

Question: With `CCOC(=O)N/N=C/c1coc2ccccc2c1=O` as the compound, how does the IC50 read?
Answer: > 100 µM

Question: With `O=C(N/N=C/c1coc2cc(O)ccc2c1=O)c1ccc(O)cc1` as the compound, how does the IC50 read?
Answer: 86.3 µM

Question: Which IC50 does the source give for `O=c1c(/C=N/Nc2cccc(Cl)c2)coc2ccccc12` here?
Answer: > 100 µM

Species on record: Homo sapiens
Assay: Non-competitive inhibition of alpha glucosidase (unknown origin) at 10 to 30 uM using p-nitrophenyl alpha-D-glucopyranoside as substrate by line-weaver burk plot method

Question: With `NS(=O)(=O)c1ccc(N/N=C/c2coc3ccccc3c2=O)cc1` as the compound, how does the inhibition read?
Answer: Active
